In article PMC8264259, “A Novel Ruthenium(II) Complex With Lapachol Induces G2/M Phase Arrest Through Aurora-B Kinase Down-Regulation and ROS-Mediated Apoptosis in Human Prostate Adenocarcinoma Cells” (Frontiers in Oncology, 2021):

How the values were obtained:
[1] = system: PNT-2 (human prostate epithelial cells); experiment: Alamar blue cytotoxicity assay, PNT-2 non-cancer cells; type: cell-based; conditions: 24-h incubation, mean ± S.E.M.
From the text: Human lung carcinoma (A549, ATCC® CCL-185™), human hepatocellular carcinoma (HepG2, ATCC® HB-8065™), and human breast adenocarcinoma (MDA-MB-231, ATCC® HTB-26™) were obtained from American Type Cell Collection (ATCC). Human melanoma (A-375, BCRJ-0278), Human colorectal adenocarcinoma (Caco-2, BCRJ 0059), human prostate adenocarcinoma (DU-145, BCRJ-0078, and PC-3, BCRJ-0269), human mouth fibroblast (FGH, BCRJ-0089), and human prostate epithelial cells (PNT-2, BCRJ-0366) were obtained from Rio de Janeiro Cells Bank (BCRJ). The cells A549, A-375, Caco-2, DU-145, HepG2, MDA-MB-231, and FGH were cultured in Dulbecco’s Modified Eagle’s Medium (DMEM, Gibco-Invitrogen®), PC-3 and PNT-2 cells were grown in Roswell Park Memorial Institute Medium (RPMI-1640, Gibco-Invitrogen®). Both mediums were supplemented according to the needs of each lineage, as recommended by its cell banks with 2 mM L-glutamine (Gibco-Invitrogen®), 10% or 20% fetal bovine serum (Gibco-Invitrogen®), 1% antibiotic-antimycotic solution (5 mg/ml penicillin, 5 mg/ml streptomycin, and 10 mg/ml neomycin, Gibco-Invitrogen®), and 3.7 g/L of NaHCO3 (Sigma-Aldrich). All cell lines were cultured in flasks at 37°C in 5% CO2 and 96% of relative humidity according to the procedures proposed by ([31]), and a mycoplasma stain kit (Sigma-Aldrich) was used to confirm the use of cells devoid of contamination. The assays were conducted between the third and the seventh-cell passage with sub-cultures every 3 to 4 days to maintain exponential growth. The cell viability was checked using the trypan blue dye exclusion assay for all experiments where over 95% of the cells were viable at the beginning of the tests.
The in vitro antiproliferative activity was quantified using the Alamar blue® assay, according to the method reported by ([32]). Cells were seeded in 96-well plates for all experiments (1.5 × 10^4 cells/well). After 24 h, the complexes were dissolved in DMSO and added to each well and incubated for 24 h. Dilutions of the complexes were prepared to obtain concentrations ranging from 0.3 to 100 μM. […] DMSO (0.1% v/v) was used as the vehicle control. Following 24 h of incubation, 50 μl of Alamar blue® (resazurin at 0.01% w/v, Sigma-Aldrich) was added to each well, and the plates were incubated, at 37°C, in the dark. Fluorescence reading was performed in a Synergy H1 Fluorescence Spectrophotometer (BioTek®), using excitation and emission filters at wavelengths of 560 and 590 nm, respectively. The fluorescence intensity was measured in arbitrary fluorescence units (AFU) and the AFU of untreated cells (CTL) was considered 100%. The cytotoxic effects of the compounds were estimated in terms of cell proliferation inhibition (%) and expressed as half-maximal inhibitory concentration (IC50). The cell proliferation inhibition percentage of cells exposed to treatments was calculated following: % Inhibition = 100 − (AFU of treated well/AFU of control well) × 100). The IC50 values were calculated from the cell proliferation inhibition percentage by nonlinear regression method using CompusSyn® Software.

DU-145 MCTSs = experiment: 3D multicellular tumor spheroids (MCTSs) culture; type: cell-based, human; conditions: for IC50: 3D spheroids, 24 h, Alamar blue, read-out: IC50 against the DU-145 MCTSs
Description: Multicellular tumor spheroids (MCTSs) were obtained according to the method reported by ([33]). Briefly, 200 μl of a solution of DU-145 cells (2.0 × 10^3 cells/well) were inserted in agarose-coated 96-well plates (1.5% w/v) and cultured in complete medium plus 3% Matrigel® (Corning). DU-145-MCTSs with stable structures had formed after five days. […] Negative control received the vehicle (DMSO 0.1% v/v) that was used for diluting the compounds tested. Finally, the MCTS proliferation inhibition (%) and IC50 were determined by Alamar blue® assay as described above. To investigate morphological changes other MCTSs were treated with 0.25, 0.5, 1.0, 1.5, and 2.0 μM of complex (2) and examined for 7 days. Spheroid integrity and diameter of MCTSs were analyzed by phase-contrast microscopy (Inverted Trinocular Microscope Opton TNB-O5T-PL) using AxioVision LE software (Carl Zeiss, Germany).

[2] = system: cleaved caspase-3, -9, and PARP; experiment: Western blot, apoptotic proteins; type: cell-based, human; conditions: DU-145, 24 h
Description: Briefly, DU-145 cells were seeded (1.0 × 10^6 cells/well) into six-well plates and maintained to attach at 37°C in 5% CO2. After 24 h, cells were treated with 0.25, 0.50, 1.0, and 1.5 μM of complex (2). DMSO (0.1% v/v) was used as the vehicle control. After 24 h of incubation, cells were collected and suspended in Western blotting lysis buffer (20 mM Tris-HCl pH 7.4, 150 mM NaCl, 1 mM EDTA, and phosphatase and protease inhibitors). Cell lysates were centrifuged at 11,000g for 15 min at 4 °C, and supernatant was collected. Protein concentrations were quantified using the BCA Protein Assay Kit® (Thermo Fischer Scientific), according to the manufacturer’s instructions. For immunoblotting, equal amounts (30 μg) of total protein were electrophoresed in a NuPAGE® 4-12% Bis-Tris gel and transferred to an Invitrolon™ polyvinylidene difluoride (PVDF) membrane (Novex®, Thermo Fischer Scientific) at 100 V for 1 h. PVDF-membrane was washed two times (5 min each) with Tris-buffered saline plus Tween 20 (TBST, Sigma-Aldrich) and blocked in 5% non-fat milk in phosphate buffered saline with Tween®20 (PBST, Sigma-Aldrich) for 1 h at room temperature. […]

| Compound | IC50 [1] | IC50 (DU-145 MCTSs) | total spheroid area over time (DU-145 MCTSs; DU-145 MCTSs treated with 0.25-2.0 μM, examined for 7 days) | more potent than cisplatin (fold) (DU-145 MCTSs; DU-145 MCTSs, IC50 ratio vs cisplatin) | activation of downstream apoptotic proteins [2] |
| --- | --- | --- | --- | --- | --- |
| CC(C)=CCC1=C([O-])C(=O)c2ccccc2C1=O.F[P-](F)(F)(F)(F)F.[Ru+2].c1ccc(-c2ccccn2)nc1.c1ccc(P(CP(c2ccccc2)c2ccccc2)c2ccccc2)cc1 [complex (1), [Ru(Lap)(dppm)(bipy)]PF6] | 5.9 ± 2.1 µM | 2.4 µM | – | – | – |
| CC(C)=CCC1=C([O-])C(=O)c2ccccc2C1=O.F[P-](F)(F)(F)(F)F.[Ru+2].c1ccc(P(CP(c2ccccc2)c2ccccc2)c2ccccc2)cc1.c1cnc2c(c1)ccc1cccnc12 [complex (2), [Ru(Lap)(dppm)(phen)]PF6] | 6.8 ± 1.5 µM | 1.9 µM | decrease in the total spheroid area | ≥ 32 fold | increase in the activation of cleaved caspase-3, -9, and PARP |
